Values quoted from earlier work in patent US8916194B2 (Lupin Limited, priority 2010, dated 2014).

Settings: in vivo

half-life: ~8 h
Structure (SMILES): CCN(CC)C(=O)C1(c2ccccc2)CC1CN (stereo not drawn) [Milnacipran, cis-2-amino methyl-N, N-diethyl-1-phenyl cyclopropane carboxamide]
